From patent US8722661B2, “Pyrrolopyrimidone and pyrrolopyridone inhibitors of tankyrase” (Genentech, Inc., priority 2012, dated 2014)

Target: T1, Tankyrase 1 (Homo sapiens, UniProt O95271)
T1 sequence (O95271 1-1327): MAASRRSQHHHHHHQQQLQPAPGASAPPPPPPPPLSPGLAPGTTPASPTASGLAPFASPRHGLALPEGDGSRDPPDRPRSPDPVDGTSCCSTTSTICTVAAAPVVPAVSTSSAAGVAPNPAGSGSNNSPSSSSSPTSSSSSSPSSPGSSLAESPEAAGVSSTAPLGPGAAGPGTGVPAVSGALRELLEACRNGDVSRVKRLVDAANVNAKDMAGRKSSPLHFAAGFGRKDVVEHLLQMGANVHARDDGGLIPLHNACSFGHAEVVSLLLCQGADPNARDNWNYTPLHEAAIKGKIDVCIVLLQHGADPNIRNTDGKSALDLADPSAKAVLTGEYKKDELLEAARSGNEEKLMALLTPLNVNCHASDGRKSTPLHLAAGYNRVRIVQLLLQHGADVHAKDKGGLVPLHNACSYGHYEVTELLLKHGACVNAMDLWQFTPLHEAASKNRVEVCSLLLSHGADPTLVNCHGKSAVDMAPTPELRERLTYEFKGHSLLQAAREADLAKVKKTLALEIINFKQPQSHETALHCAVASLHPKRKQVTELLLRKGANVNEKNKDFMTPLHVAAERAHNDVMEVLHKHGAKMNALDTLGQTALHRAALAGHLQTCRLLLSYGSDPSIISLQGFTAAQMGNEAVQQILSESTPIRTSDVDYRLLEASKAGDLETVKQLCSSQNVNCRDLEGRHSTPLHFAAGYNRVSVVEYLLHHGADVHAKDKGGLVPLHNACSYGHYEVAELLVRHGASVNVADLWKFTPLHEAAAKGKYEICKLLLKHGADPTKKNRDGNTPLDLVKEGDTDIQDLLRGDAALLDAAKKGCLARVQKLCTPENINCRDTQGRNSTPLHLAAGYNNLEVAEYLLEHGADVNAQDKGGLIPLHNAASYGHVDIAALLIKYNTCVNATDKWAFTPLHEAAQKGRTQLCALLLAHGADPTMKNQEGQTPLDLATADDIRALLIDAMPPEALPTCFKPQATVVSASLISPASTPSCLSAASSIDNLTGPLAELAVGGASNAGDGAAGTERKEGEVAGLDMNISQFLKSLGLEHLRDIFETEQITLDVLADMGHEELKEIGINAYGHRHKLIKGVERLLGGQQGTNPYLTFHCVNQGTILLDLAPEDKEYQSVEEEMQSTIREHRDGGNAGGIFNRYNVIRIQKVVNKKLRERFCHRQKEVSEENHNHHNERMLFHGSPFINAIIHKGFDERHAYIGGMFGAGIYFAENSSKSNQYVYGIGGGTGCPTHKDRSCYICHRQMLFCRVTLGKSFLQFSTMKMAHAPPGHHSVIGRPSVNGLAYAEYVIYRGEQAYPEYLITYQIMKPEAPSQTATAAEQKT
Test: TNKS1 NAM assay (NADase activity, released nicotinamide by LC-MS)
Assay type: biochemical
Details: Table I, value marked with superscript 2 (footnote not given), taken as the second assay
Protocol: NADase activity of Tankyrase 1 was measured by quantifying released nicotinamide using liquid chromatography mass spectrometry. Varying concentrations of experimental compounds were incubated in 10 μL reactions containing 25 nM recombinant Tankyrase 1, 1 mM NAD+, 5 μM d4-nicotinamide internal standard, 2% DMSO, 50 mM Tris pH 7.5, 5 mM CaCl2, and 0.01% Triton X-100 for 1 h at RT. Reactions were quenched by mixing 2 μL of the reaction mixture with 98 μL of 0.05% formic acid. 1 μL of quenched reaction was loaded onto a reverse phase BEH-Phenyl column (Waters) pre-equilibrated with 1 mM ammonium formate and eluted with a linear gradient to 80% acetonitrile. Compound IC50s were determined by four-parameter curve fitting.
Representative compound data for assays are listed below in Table I. Values are in uM.

COCCOc1cc(F)c(N2CCN(c3nc4c(ccn4CCO)c(=O)[nH]3)CC2)c(F)c1 [Example 63, 2-[4-[2 6-difluoro-4-(2-methoxyethoxy)phenyl]piperazin-1-yl]-7-(2-hydroxyethyl)-3H-pyrrolo[2,3-d]pyrimidin-4-one]
IC50: 9.67 nM
